Earlier results on one compound are cited in patent US6703044B1, “Venlafaxine formulations” (priority 2002, dated 2004).

Molecules are shown by their SMILES. Where a name gives a salt, the structure may show the parent alone.

For this data set the following is noted: plural daily dosing regimen.

In the case of `COc1ccc(C(CN(C)C)C2(O)CCCCC2)cc1` (centres unmarked) [venlafaxine hydrochloride, 1-[(2-dimethylamino)-1-(4-methoxyphenyl)ethyl] cyclohexanol], the patients experiencing nausea entry is given as “about forty five” and the “patients in whom vomiting occurs” value is listed as “about seventeen”.
